# Assay results taken from article PMC3098219, “Protective Efficacy of Serially Up-Ranked Subdominant CD8^+ T Cell Epitopes against Virus Challenges” (PLoS Pathogens, 2011).
# “Also recorded” adds a separate entry of the source.
# Assays:
# [1] = tested on: CD8^+ splenocytes of immunized mice; assay type: cell-based, BALB/c mice; settings: HIVAdH vs HIVA immunization; ex vivo ICS, Figure 1D
# [2] = tested on: syngeneic peptide-pulsed cells; assay: in vivo killing assay (lysis of syngeneic peptide-pulsed cells); set-up: species or system BALB/c mice; settings: HIVAdH vaccinated relative to HIVA vaccination; Figure 1F
# CD8^+ T cells = assay: Immunodominance hierarchy of T cell responses to HIVA-derived epitopes; assay type: cell-based, BALB/c mice; settings: 10 d after immunization
# CD8^+CD107a/b^+ T cells = assay: Multicolour flow cytometry after mixed or split vaccination; assay type: cell-based, BALB/c mice
# [3] = tested on: splenocytes of DNA-immunized mice; assay: IFN-γ ELISPOT and ICS with modified HIVA immunogens; assay type: cell-based, BALB/c mice; settings: dHmP-immunized group; ELISPOT, ICS and in vivo killing
# Excerpt: To further investigate this phenomenon, we serially inactivated CD8^+ T cell epitopes in the order of their immunodominance. To maintain the HIVA protein integrity, epitopes P and G1 were mutated rather than deleted by substituting the anchor amino acid residues required for a strong binding to the H-2K^d molecule (Figure 2A). The resulting double and triple mutants of the HIVA immunogen were called dHmP and dHmPG1, respectively. […] Groups of BALB/c mice were immunized 2x using the modified HIVA immunogens vectored by plasmid DNA and the immune responses were measured in IFN-γ ELISPOT, ICS and in vivo killing assays. […] Second, consistently in all three assays, immune responses directed against subdominant epitopes were serially recovered, however, not to the same extent. […] Because the response to the G2 epitope remained undetectable even in the dHmPG1-immunized mice, overlapping 15/11 peptides across the whole HIVA immunogen were used again to search for another yet unidentified epitope of a higher rank. […] (Figure 2D). […] Thus, step-wise deletion of immunodominant CD8^+ T cell epitopes restores responses to the subdominant epitopes in the hierarchy.
# Figure 2 Serial up-ranking of epitopes. A) Groups of 4 BALB/c mice were immunized 2x i.m. with 100 µg of DNA at a 2-wk interval. Two wk later, splenocytes were assessed in an ELISPOT assay for production of IFN-γ upon re-stimulation with peptides indicated above. Shown are schematic diagrams of HIVA and the three modified immunogens with representative examples of the ELISPOT well images. B) Mice were immunized as in A and 4 wk later, splenocytes were assessed in an ICS assay to measure CD8^+ T cells secreting IFN-γ upon re-stimulation with peptide indicated in the top left corner. Group means±SD are shown. C) Identical groups of mice were assessed for cytolytic activity in an in vivo lysis of syngeneic peptide-pulsed cells transferred into naïve or vaccinated animals. Representative examples of dot plots are shown (top) and the peptide-specific lyses are expressed as a group mean±SD (bottom). D) Groups of 3 BALB/c mice were immunized 3x with 100 µg of DNA indicated above the dot plot in 2-wk intervals and the designated NPP peptide-specific responses were assessed by IFN-γ ICS 2 wk later. The FACS plots are representative examples with IFN-γ producing cells as a percentage of CD8^+ splenocytes shown in the top right panels. All experiments were repeated at least once. TEXT PRINTED IN THE PICTURE: (D) HIVA: 0.05 | (D) HIVAdH: 0.09 | (D) dHmP: 0.08 | (D) dHmPG1: 0.57 DOUBTS OF THE COPYIST ABOUT THIS PICTURE: Panel D: the numbers in the top right quadrants of the CD8 / IFN-γ dot plots are printed without a measure or unit, so they are copied as bare numbers.
# The ELISPOT assay was performed using the Mouse IFN-γ ELISpot kit (Mabtech) according to the manufacturer's instructions. Spots were visualised using sequential applications of a biotin-conjugated secondary anti-IFN-γ mAb (R4-6A2, Rat IgG1), an alkaline phosphatase and a chromogenic substrate (Bio-Rad) and counted using the AID ELISpot Reader System (Autoimmun Diagnostika).
# H-2K^d = H-2K^d (Mus musculus, UniProt P01902); settings: ref [34]; cited from earlier work
# Sequence of H-2K^d (P01902 whole entry, looked up): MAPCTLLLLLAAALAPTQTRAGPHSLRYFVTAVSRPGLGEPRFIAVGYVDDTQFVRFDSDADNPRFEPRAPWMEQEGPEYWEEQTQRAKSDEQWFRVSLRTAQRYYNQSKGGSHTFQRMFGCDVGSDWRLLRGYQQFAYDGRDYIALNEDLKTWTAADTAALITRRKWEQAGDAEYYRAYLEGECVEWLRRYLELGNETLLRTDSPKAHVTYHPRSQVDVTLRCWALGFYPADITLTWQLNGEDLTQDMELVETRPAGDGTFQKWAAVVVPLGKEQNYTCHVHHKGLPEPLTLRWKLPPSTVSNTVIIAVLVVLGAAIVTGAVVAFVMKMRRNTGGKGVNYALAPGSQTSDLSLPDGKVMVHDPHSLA
# Excerpt: Our research interests lie in development of the T cell component of HIV-1 vaccines stimulating protective CD8^+ T cell responses. The first-generation T cell immunogen, designated HIVA (Figure 1A), has served as an extremely useful tool for iterative improving of CD8^+ T cell induction by experimental vaccines in mice, non-human primates and humans [reviewed in [30]]. To increase the power of T cell analysis and study the role of subdominant determinants, H-2^d class I-restricted epitopes contained in the HIVA immunogen were mapped in detail. Thus, the most immunodominant epitope of ...
# EcoHIV/NDK = EcoHIV/NDK challenge; settings: Figure 7C and D; 2x 100 µg DNA, challenge 5 d later; splenocytes and peritoneal macrophages, qPCR
sequence,measurement,setting,value
AMQMLKDTI [G1],frequencies of IFN-γ-producing CD8^+ cells,[1],"noticeably, though not significantly increased"
same,in vivo lysis of peptide-pulsed targets,[2],increased in vivo lysis
same,hierarchy of T cell responses against HIVA-derived epitopes,CD8^+ T cells,H>P>>G1>NPP>>G2
same,G1-specific response relative to epitopes H and P,"CD8^+CD107a/b^+ T cells; Figure 4B groups 4 and 5, HIVA-dHmP and dHmP-HIVA prime-boost, 23-wk rest, WR.HIVA re-stimulation",significantly increased
same,anti-G1 responses,"CD8^+CD107a/b^+ T cells; Figure 4B groups 7 and 9, pre-mixed vaccines injected into 2 sites",failed to induce anti-G1 responses
same,restoration of G1-specific T cell responses,[3],"significant restoration of G1-specific T cell responses, now comparable to those against H and restored P"
same,MHC class I restriction (H-2K^d),H-2K^d,H-2K^d-restricted
same,protection against EcoHIV/NDK challenge,EcoHIV/NDK,sufficient to induce protective efficacy; also recorded: enhanced clearance of EcoHIV/NDK infection
